Results on 23 compounds are retold here after ChEMBL document CHEMBL4118162, “Discovery of novel anti-tuberculosis agents with pyrrolo[1,2-a]quinoxaline-based scaffold” (Bioorg Med Chem Lett, 2018).

By solubility is commonly meant the dissolved amount per volume that the medium holds. Low readings indicate a poorly soluble substance, high ones a readily soluble substance. Broadly, the MIC90 is the lowest concentration that inhibits either 90% of growth or 90% of the strains tested, depending on the study. Higher therefore signals lower susceptibility. Broadly, the IC50 is the concentration needed to halve the response being measured. By Papp is commonly meant a coefficient for how fast a substance crosses the barrier. The low end stands for poor permeation, the high end for ready permeation.

In brackets after ≈: the same amount, converted by molar mass.

The subject of data set [1] is Mycobacterium tuberculosis. The experiment in a line: Antitubercular activity against Mycobacterium tuberculosis H37Ra assessed as as inhibition of bacterial growth at 10 ug/ml up to 7 days. The data set is classed as functional. Conditions: 168 h, read-out: GI.
Data set [2] can be described thus: Solubility of the compound in water at 500 ug/mL by HPLC method. It counts as physicochemical.
For data set [3], the target named is T1, Enoyl-[acyl-carrier-protein] reductase [NADH] (Mycobacterium tuberculosis) (UniProt P9WGR1).
T1 sequence (whole entry): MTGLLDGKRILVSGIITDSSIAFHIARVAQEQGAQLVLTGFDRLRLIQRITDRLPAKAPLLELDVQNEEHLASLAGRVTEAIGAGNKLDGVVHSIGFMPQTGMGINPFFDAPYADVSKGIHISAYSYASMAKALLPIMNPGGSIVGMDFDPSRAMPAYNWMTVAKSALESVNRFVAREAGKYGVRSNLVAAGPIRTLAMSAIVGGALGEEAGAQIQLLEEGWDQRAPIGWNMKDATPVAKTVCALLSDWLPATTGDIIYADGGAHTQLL
The experiment in a line: Inhibition of Mycobacterium tuberculosis InhA at 100 uM using trans-2-decenoyl-N-acetylcysteamine as substrate preincubated for 1 hr followed by substrate addition measured every 30 secs for 5 mins.

Data set [4] deals with Mycobacterium tuberculosis. The experiment in a line: Antitubercular activity against Mycobacterium tuberculosis H37Ra up to 7 days. Conditions: 168 h. The data set is classed as functional.
The nature of data set [5]: Cytotoxicity against human MDA231 cells assessed as growth inhibition up to 20 uM after 48 hrs by MTT assay. The data set is classed as cell-based, MDA-MB-231. The note with it: read-out: GI. Background: Formazan colour is commonly taken as a measure of viable cells.
Data set [6] can be described thus: Cytotoxicity against human SKOV3 cells assessed as growth inhibition up to 20 uM after 48 hrs by MTT assay. It counts as cell-based, SK-OV-3. The note with it: read-out: GI.
Data set [7] can be described thus: Cytotoxicity against human LO2 cells assessed as growth inhibition up to 20 uM after 48 hrs by MTT assay. The data set is classed as cell-based, L02. The note with it: read-out: GI.
Data set [8] concerns the target T2, Enoyl-[acyl-carrier-protein] reductase [NADH] (Mycobacterium tuberculosis, UniProt P9WGR1).
T2 sequence (P9WGR1 whole entry): T1 sequence (whole entry)
The experiment in a line: Inhibition of Mycobacterium tuberculosis InhA using trans-2-decenoyl-N-acetylcysteamine as substrate preincubated for 1 hr followed by substrate addition measured every 30 secs for 5 mins.

A short description of data set [9]: Solubility of the compound in water at 180 uM by HPLC method. The data set is classed as physicochemical.
Data set [10] is described as follows: Effective permeability of the compound in PBS/EtOH at 50 ug/mL after 18 hrs by PAMPA-BBB assay. A general note: The PAMPA barrier holds no transporters, so it reflects passive diffusion.

On to `CCCNCc1cc(-c2ccccc2F)n2c1cnc1ccccc12`, for which the inhibition of growth at 10 µg/mL in data set [1] is ≥ 90%. In data set [2], this compound displayed a solubility of 73.3 µg/mL (≈ 220 µM). Moreover, the inhibition in data set [3] amounted to 5.21%. The MIC90 in [4] lay in the range of 10 to 50 µg/mL (≈ 30 to 150 µM).
Turning to `CC(C)NCc1cc(-c2ccccc2F)n2c1cnc1cc(Cl)ccc12`, the inhibition of growth at 10 µg/mL in data set [1] is ≥ 90%. The compound also returned a solubility in data set [2] of 33.2 µg/mL (≈ 90.1 µM). Also, in data set [3], the inhibition worked out at 27.4%. The compound further returned an MIC90 in data set [4] of 10 µg/mL (≈ 27.2 µM). In addition, the figures for the inhibition at 48 h in data set [5], in [6] and in data set [7] were 71.7%, 76.4% and 76.4%, respectively.
As for `Fc1ccccc1-c1cc(CNCCc2ccc(Br)cc2)c2cnc3cc(Cl)ccc3n12`, the inhibition of growth at 10 µg/mL in [1] was ≥ 90%. The solubility in data set [2] was < 2.5 µg/mL. For the same compound, the inhibition in data set [3] turned out to be 64.9%. The MIC90 in data set [4] was 5 µg/mL (≈ 9.83 µM). For the same compound, the inhibition at 48 h in data set [5] turned out to be 70.5%; in [6], 71.8%; in data set [7], 40.1%. The compound also displayed an IC50 in [8] of 48 µM.
For the compound `CCCCNCc1cc(-c2ccccc2F)n2c1cnc1cc(F)ccc12`, the inhibition of growth at 10 µg/mL in data set [1] is ≥ 90%. The concentration in solution in data set [2] (solubility) was 8.61 µg/mL (≈ 23.6 µM). The inhibition in data set [3] is 7.88%. In [4], the MIC90 came to 25 µg/mL (≈ 68.4 µM).
Take `Fc1ccccc1-c1cc(CNCc2c(F)cccc2Cl)c2cnc3cc(Cl)ccc3n12`: the inhibition of growth at 10 µg/mL in data set [1] is ≥ 90%. Further, the solubility in [2] was < 2.5 µg/mL. In [4], the MIC90 is > 50 µg/mL.
As to `Fc1ccc2c(c1)ncc1c(CNCc3ccccc3)cc(-c3ccccc3F)n12`, the inhibition of growth at 10 µg/mL in [1] was ≥ 90%. For the same compound, in data set [2], the concentration in solution (solubility) came to 4.9 µg/mL (≈ 12.3 µM). For the same compound, in data set [3], the inhibition came to 48.5%. The compound further gave an MIC90 in [4] of 10 µg/mL (≈ 25 µM). Besides, the inhibition at 48 h is -8.04% in data set [5], -7.09% in [6] and 20.1% in data set [7].
Consider `CCCCNCc1cc(-c2ccccc2F)n2c1cnc1ccccc12`, for which the inhibition of growth at 10 µg/mL in data set [1] was ≥ 90%. The same compound came in with a solubility in [2] of 120 µg/mL (≈ 346 µM). For the same compound, the inhibition in [3] came to 14.4%. The same compound came in with an MIC90 in data set [4] of 10 to 50 µg/mL (≈ 28.8 to 144 µM).
Take `CCN(Cc1ccccc1)Cc1cc(-c2ccccc2F)n2c1cnc1cc(Cl)ccc12`: the inhibition of growth at 10 µg/mL in [1] is ≥ 90%. Moreover, in data set [2], the solubility is < 2.5 µg/mL. Besides, in data set [4], the MIC90 was > 50 µg/mL.
As to `CCCNCc1cc(-c2ccccc2F)n2c1cnc1cc(Cl)ccc12`, the inhibition of growth at 10 µg/mL in data set [1] is ≥ 90%. Also, in data set [2], the concentration in solution (solubility) was 17.5 µg/mL (≈ 47.6 µM). The inhibition in [3] worked out at 24.8%. In data set [4], this compound came in with an MIC90 of 10 µg/mL (≈ 27.2 µM). Also, the inhibition at 48 h in [5] was 74.5%; in [6], 77%; in [7] it was 73.7%.
Consider `CCN(CC)Cc1cc(-c2ccccc2F)n2c1cnc1cc(Cl)ccc12`, for which, in data set [1], the inhibition of growth at 10 µg/mL was ≥ 90%. The same compound yielded an MIC90 in data set [4] of 10 to 50 µg/mL (≈ 26.2 to 131 µM).
With `CC(C)NCc1cc(-c2ccccc2F)n2c1cnc1ccccc12`, the inhibition of growth at 10 µg/mL in data set [1] was ≥ 90%. For the same compound, the solubility in data set [2] is 70.5 µg/mL (≈ 212 µM). Also, in data set [3], the inhibition was determined as 17.3%. In data set [4], this compound had an MIC90 of 10 to 50 µg/mL (≈ 30 to 150 µM).
On to `Fc1ccccc1-c1cc(CNCc2ccccc2)c2cnc3cc(Br)ccc3n12`, for which the inhibition of growth at 10 µg/mL in data set [1] was ≥ 90%. For the same compound, the solubility in data set [2] is < 2.5 µg/mL. The inhibition in data set [3] was 62%. This compound also gave an MIC90 in [4] of 10 µg/mL (≈ 21.7 µM). The results for the inhibition at 48 h in data set [5], in [6] and in data set [7] were 32.1%, 13.3% and 5.38%, respectively. The compound further had an IC50 in [8] of 54 µM.
With `COc1ccc(CCNCc2cc(-c3ccccc3F)n3c2cnc2cc(Cl)ccc23)cc1OC`, the inhibition of growth at 10 µg/mL in data set [1] was ≥ 90%. For the same compound, the inhibition in data set [3] was 40.4%. Besides, the MIC90 in data set [4] is 5 µg/mL (≈ 10.2 µM). For the same compound, the inhibition at 48 h in data set [5] was determined as 76.4%; in data set [6] it was 84.4%; in data set [7], 53.5%. Besides, the solubility at 180 µM in [9] was 90 µg/mL (≈ 184 µM). In data set [10], this compound displayed an apparent permeability (Papp) at 18 h, 50 ug/mL of 9.39 ×10⁻⁶ cm/s.
As for `CCN(CC)Cc1cc(-c2ccccc2F)n2c1cnc1ccccc12`, the inhibition of growth at 10 µg/mL in data set [1] was ≥ 90%. Also, the MIC90 in data set [4] is > 50 µg/mL.
Turning to `Fc1ccccc1-c1cc(CNCc2ccccc2)c2cnc3ccccc3n12`, the inhibition of growth at 10 µg/mL in data set [1] was ≥ 90%. Further, the solubility in [2] was 21.1 µg/mL (≈ 55.3 µM). Moreover, the inhibition in data set [3] is 22.1%. The same compound had an MIC90 in [4] of 10 to 50 µg/mL (≈ 26.2 to 131 µM).
Turning to `Fc1ccccc1-c1cc(CNCCc2ccc(Br)cc2)c2cnc3ccccc3n12`, in data set [1], the inhibition of growth at 10 µg/mL is ≥ 90%. The solubility in [2] is < 2.5 µg/mL. Moreover, the inhibition in [3] was 17.3%. In data set [4], the MIC90 was found to be 5 µg/mL (≈ 10.5 µM). Further, the inhibition at 48 h worked out at 76.1% in data set [5], 69.3% in data set [6] and 72.3% in [7].
Consider `Fc1ccccc1-c1cc(CNCc2c(F)cccc2Cl)c2cnc3ccccc3n12`, for which, in data set [1], the inhibition of growth at 10 µg/mL is ≥ 90%. The compound further yielded a solubility in data set [2] of 20.8 µg/mL (≈ 48 µM). In addition, the MIC90 in [4] was > 50 µg/mL.
On to `CCCCNCc1cc(-c2ccccc2F)n2c1cnc1cc(Cl)ccc12`, for which, in data set [1], the inhibition of growth at 10 µg/mL is ≥ 90%. In data set [2], the solubility came to 20 µg/mL (≈ 52.3 µM). In addition, the inhibition in data set [3] turned out to be 33.3%. In data set [4], this compound showed an MIC90 of 10 µg/mL (≈ 26.2 µM). The inhibition at 48 h was 74.5% in data set [5], 75.9% in [6] and 73.7% in data set [7].
With `Fc1ccccc1-c1cc(CN2CCN(c3ccccc3C(F)(F)F)CC2)c2cnc3cc(Cl)ccc3n12`, the inhibition of growth at 10 µg/mL in data set [1] was ≥ 90%. Besides, in data set [2], the solubility was < 2.5 µg/mL. Also, the MIC90 in data set [4] is > 50 µg/mL.
In the case of `COc1ccc(CCNCc2cc(-c3ccccc3F)n3c2cnc2ccccc23)cc1OC`, the inhibition of growth at 10 µg/mL in data set [1] was ≥ 90%. Further, in data set [2], the concentration in solution (solubility) was 50.7 µg/mL (≈ 111 µM). Moreover, the inhibition in [3] stood at 6.28%. The same compound gave an MIC90 in [4] of 10 to 50 µg/mL (≈ 22 to 110 µM).
As for `Fc1ccccc1-c1cc(CN2CCOCC2)c2cnc3cc(Cl)ccc3n12`, the inhibition of growth at 10 µg/mL in data set [1] was ≥ 90%. Moreover, the solubility in data set [2] was < 2.5 µg/mL. The MIC90 in [4] was > 50 µg/mL.
As to `CCCCNCc1cc(-c2ccccc2F)n2c1cnc1cc(Br)ccc12`, in [1], the inhibition of growth at 10 µg/mL is ≥ 90%. Also, the concentration in solution in data set [2] (solubility) came to 6.74 µg/mL (≈ 15.8 µM). The inhibition in data set [3] amounted to 50.2%. In addition, in data set [4], the MIC90 turned out to be 10 µg/mL (≈ 23.5 µM). The figures for the inhibition at 48 h in data set [5], in data set [6] and in data set [7] were 70.8%, 66.3% and 68.7%, respectively.
Turning to `Fc1ccccc1-c1cc(CNCc2ccccc2)c2cnc3cc(Cl)ccc3n12`, the inhibition of growth at 10 µg/mL in data set [1] was ≥ 90%. The solubility in data set [2] is < 2.5 µg/mL. The inhibition in data set [3] is 37%. The MIC90 in data set [4] amounted to 5 µg/mL (≈ 12 µM). Also, the inhibition at 48 h in data set [5] is 27.8%; in [6], 19.4%; in data set [7], 43.7%.
